Experimental data as given in US20240252654A1, “IMPROVED SMALL MOLECULES” (University of Dundee, priority 2020, published 2024).

Key:
HiBiT-BRD4 [1] = target: T1, HiBiT-BRD4 (Homo sapiens, UniProt O60885); assay: NanoBRET target engagement, permeabilized and live cells; assay type: cell-based
T1 construct: endogenously HiBiT tag the N-terminal genomic loci of BRD2, BRD3, or BRD4; endogenous in cells; host or cells: HEK293 stably expressing LgBiT, CRISPR/Cas9 edited
Description: Cells were treated with a fluorescent BET tracer, then incubated with the indicated compounds at various concentrations to measure competitive displacement.
(§1) NanoBRET Target Engagement and Residence Time. For target engagement experiments in live and permeabilized cells, CRISPR HiBiT-BRD4 HEK293 cells stably expressing LgBiT were plated into white 96-well tissue culture plates at a density of 2×10^4 cells/well. Cells were equilibrated for 1 h with energy transfer probes and the indicated test compound prior to NanoBRET measurements. NanoBRET tracers were prepared at a working concentration of 20× in tracer dilution buffer (12.5 mM HEPES, 31.25% PEG-400, pH 7.5). NanoBRET BRD Tracer-02 was added to cells at a final concentration of 0.5 μM. To measure NanoBRET in live cells, NanoBRET NanoGlo Substrate and Extracellular NanoLuc Inhibitor (Promega) were added according to the manufacturer's recommended protocol, and filtered luminescence was measured on a GloMax Discover luminometer equipped with 450 nm BP filter (donor) and 600 nm LP filter (acceptor) using 0.3 s integration time. To measure NanoBRET in permeabilized cells, digitonin was added to the cells to a final concentration of 50 μg/mL and Extracellular NIuc inhibitor was omitted during the detection step. […] Cells were incubated in 15 mL conical tubes with caps loosened in a tissue culture incubator for 1 h. Following incubation, cells were spun at 300×g for 5 min, washed once with Opti-MEM, spun a second time at 300×g for 5 min, then resuspended with fresh Opti-MEM before plating at 2×10^4 cells/well. NanoBRET BRD Tracer-02 was added at a final concentration of 0.5 μM cells and kinetic NanoBRET measurements were collected on a GloMax Discover. NanoBRET ratios were expressed in milliBRET units and calculated according to the equation in the NanoBRET Ubiquitination, Ternary Complex and Biosensor Experiments section.

HiBiT-BRD4 [2] = target: T1, HiBiT-BRD4; assay: NanoBRET live cell residence time; assay type: cell-based; settings: live cells
Description: as §1

MV4; 11 cells = assay: Correlative cell viability in cMyc-HiBiT MV4;11 cells (CellTiter-Glo); assay type: cell-based; settings: 1 nM, after 6 h
Description: Monitoring cMyc Loss and Cell Viability in MV4; 11 Cells. CRISPR cMyc-HiBiT MV4; 11 cells (Promega) were plated at a density of 5×10^4 cells per well in solid, white 96-well tissue culture plates (Corning Costar #3917). Following an overnight incubation, they were treated with 1-100 nM concentration of the indicated compounds and at the plotted time points, cMyc levels were determined using luminescent measurement with NanoGlo HiBiT lytic reagent (Promega). Replicate plate of all compound treatments were prepared and at identical timepoints as the protein level measurements, cell viability was measured using Cell-Titer Glo (Promega). Plates were shaken on an orbital shaker for 10-20 min before reading luminescence on a GloMax Discover Microplate Reader (Promega).

[3] = system: VHL and full-length BRD4 WT, N140F, or N433F; assay: Kinetic NanoBRET ternary complex assay, NanoLuc-BRD4 with HaloTag-VHL; assay type: cell-based, human
Description: NanoBRET Ubiquitination, Ternary Complex, and Biosensor Experiments. For endogenous live cell BET:Ubiquitin and BET:VHL assays, CRISPR HiBiT-BRD2, HiBiT-BRD3, and HiBiT-BRD4 HEK293 cells stably expressing LgBiT were transfected with 2 μg of HaloTag-UBB or HaloTag-VHL vectors in 6-well plates using FuGENE HD (Promega). For full transient NanoBRET experiments with NanoLuc-BRD4 WT, N433F, or N140F mutants, HEK293 cells (8×10^5) were co-transfected with 0.02 μg NanoLuc-BRD4 and 2 μg of HaloTag-VHL vectors. For transient NanoBRET experiments with the BRD4 NL-BD1-BD2-HT biosensor containing either the WT tandem BD1-BD2 domain (AA 44-460) or containing the N433F mutation, HEK293 cells (8×10^5) were transfected with 0.02 μg biosensor plasmid and 2 μg carrier DNA. […] NanoBRET NanoGlo (Promega) substrate was added and BRET was measured two hours post-compound treatment using a GloMax Discover Microplate Reader (Promega). Dual filtered luminescence was collected with a 460/80 nm bandpass filter and a 610 nm long pass filter (acceptor, HaloTag NanoBRET ligand) using an integration time of 0.5 s. For all NanoBRET experiments, background subtracted NanoBRET ratios expressed in milliBRET units were calculated from the equation: […]

22Rv1 cells = assay: PARP cleavage immunoblot in 22Rv1 cells; assay type: cell-based; settings: 22Rv1, 10 nM, 24 h (MT1, MZ1 up to 48 h)
Description: Next, the inventors assessed the functional effects of SIM1 on the viability of 22Rv1 cancer cells. […] Cells died of apoptosis as indicated by prevented cleavage of PARP upon co-treatment with QVD-OPh, a pan-caspase inhibitor, and not of necroptosis, as shown by co-treatment with Necrostatin-1 (FIG. 3d and FIG. 10a).
Degradation assays. MV4; 11 cells were seeded at 1×10^6 cells/mL of 10 cm dishes 12-24 h before treatment. 22Rv1 and HEK293 cells were seeded at 2.5-6×10^5 cells/well of 6 well plates 12-24 h before treatment. Cells were treated with test compounds with and without inhibitors as indicated or an equivalent volume of DMSO and lysed at the stated time point. For lysis, cells were washed twice in ice cold PBS (Invitrogen) then lysed in 250 μL/plate for MV4; 11 cells or 80 μL/well for 22Rv1 and HEK293 cells of ice cold lysis buffer containing 50 mM Tris hydrochloride pH 7.4, 150 mM sodium chloride, 1 mM EDTA pH 7.4, 1% v/v Triton X-100, 1×Halt™ Protease Inhibitor Cocktail (ThermoFisher). […] Protein concentration was determined by BCA assay (Pierce) and the absorbance at 562 nm measured by spectrophotometry (NanoDrop ND1000). […] Bands were detected using a ChemiDoc MP imaging system (BioRad) and quantified (Image Studio Lite, version 5.2) with normalisation to β-actin and the DMSO control per time point. […]

BRD2 and BRD4 = assay: Dose-response degradation immunoblot in RCC4-HA-VHL cells; assay type: cell-based; settings: 6 h, 500 nM to 6.4 pM
Description: Compound MN674 was designed and synthesised as another analogue of SIM1. […] MN674 was tested in the mammalian cell line RCC4-HA-VHL in a dose-response degradation assay. The assay involved immunoblots (see FIG. 21 for raw western blot data and FIG. 22 for dose-response curves) displaying 6 hour treatments of eight 5-fold serial dilutions from 500 nM to 6.4 pM of each compound. […] RCC4-HA-VHL cells were exposed to eight 5-fold serial dilutions (from 500 nM to […]) of heterotrivalent Bet-Bet-VHL PROTACs SIM1 and MN674 for 6 hour treatments, before lysates were harvested and analysed on immunoblots (FIG. 21). A Bio-Rad MP imaging system was used for fluorescence detection of BRD2 (IRDye 800CW), BRD4_long (IRDye 800CW), BRD4_short (IRDye 800CW) and house-keeping gene Tubulin (Rhodamine). The intensities of the bands were determined using ImageLab software and all BET protein intensities normalised to Tubulin in order to convert them into a percentage band intensity rationalised to the 0.1% DMSO-only control. These intensities were then plotted in GraphPad Prism for Dose-Response [Inhibition] Variable slope (four parameter) analyses to generate the curves for BRD2 (FIG. 22a) and BRD4 (FIG. 22b), to determine the DC50 values presented in Table 3 (FIG. 20). The experiment is representative of n=2 i.e. biological duplicate.

Row | Structure (SMILES) | IC80 (HiBiT-BRD4 [1]; live cell format, unit given with each value, read-out: IC80 for tracer displacement) | binding to endogenous HiBiT-BRD4 (HiBiT-BRD4 [1]; permeabilized cells) | residence time on BRD4 (HiBiT-BRD4 [2]) | measurable cellular death (MV4; 11 cells) | ternary complex formation [3] | PARP cleavage / cell death (22Rv1 cells) | degradation potency relative to SIM1 (BRD2 and BRD4)
1 | Cc1sc2c(c1C)C(c1ccc(Cl)cc1)=N[C@@H](CC(=O)NCCOCCOCCOCCOCCOCCOCCOCCNC(=O)C[C@@H]1N=C(c3ccc(Cl)cc3)c3c(sc(C)c3C)-n3c(C)nnc31)c1nnc(C)n1-2 [MT1] | 100 nM | near-identical binding affinities and IC50 values | longer residence time | not | not | did not cause observable PARP cleavage | 
2 | Cc1ncsc1-c1ccc(CNC(=O)[C@@H]2C[C@@H](O)CN2C(=O)[C@@H](NC(=O)COCC(C)(COCCOCCNC(=O)C[C@@H]2N=C(c3ccc(Cl)cc3)c3c(sc(C)c3C)-n3c(C)nnc32)COCCOCCNC(=O)C[C@@H]2N=C(c3ccc(Cl)cc3)c3c(sc(C)c3C)-n3c(C)nnc32)C(C)(C)C)cc1 [MN674, N,N′-(8-((2-(((S)-1-((2S,4R)-4-hydroxy-2-((4-(4-methylthiazol-5-yl)benzyl)carbamoyl)pyrrolidin-1-yl)-3,3-dimethyl-1-oxobutan-2-yl)amino)-2-oxoethoxy)methyl)-8-methyl-3,6,10,13-tetraoxapentadecane-1,15-diyl)bis(2-((S)-4-(4-chlorophenyl)-2,3,9-trimethyl-6H-thieno[3,2-f][1,2,4]triazolo[4,3-a][1,4]diazepin-6-yl)acetamide)] |  |  |  |  |  |  | comparable in degradation potencies to SIM1
